{"source": "patent US5352704A", "about": "“Guanidinobenzene derivatives” (priority 1989, dated 1994)", "key": {"[1]": {"settings": "related art (Virology, Raven Press, pp 323-348, 1985); cited from earlier work"}, "[2]": {"system": "human influenza virus A/WSN", "test": "Inhibitory action on plaque formation by human influenza virus", "format": "cell-based, human influenza virus A/WSN (in MDCK dog kidney cells)", "settings": "unidentified influenza virus, MDCK, 72 h, read-out: Inhibition ratio (%) of plaque formation"}, "[3]": {"system": "influenza virus A/Udron/72 (H3N2)", "format": "in vivo, mole hamster", "settings": "10.0 mg/ml, 50 μl intranasal at 6, 11 and 24 hours after infection, 28 hours from infection, n = 5"}}, "data": [{"smiles": "NC12CC3CC(CC(C3)C1)C2", "note": "[amantadine]", "values": [{"measurement": "efficacy on frequent use", "setting": "[1]", "value": "the higher the frequency of use, the lower becomes efficacy"}, {"measurement": "side effects", "setting": "[1]", "value": "teratogenicity"}]}, {"smiles": "N=C(N)Nc1ccc(C(=O)Nc2ccc3cc(C(=N)N)ccc3c2)cc1", "note": "[Compound B, 4-guanidinobenzoic acid 6-amidino-2-naphthylamide.2 methanesulfonate]", "values": [{"measurement": "inhibition at 10 µg/mL", "setting": "[2]", "value": 31.4, "unit": "%"}, {"measurement": "inhibition at 20 µg/mL", "setting": "[2]", "value": 67.6, "unit": "%"}, {"measurement": "inhibition at 50 µg/mL", "setting": "[2]", "value": 82.4, "unit": "%"}, {"measurement": "% Inhibition (virus in lung)", "setting": "[3]; **P < 0.01, tTest", "value": 99.0, "unit": "%"}, {"measurement": "PFU/lung", "setting": "[3]; control 4.8 ± 2.2 × 10^5", "value": "5.0 ± 10.0 × 10^3 PFU/lung"}]}, {"smiles": "N=C(N)Nc1ccc(C(=O)Nc2ccc(C(=N)N)cc2)cc1", "note": "[Compound A, 4-guanidinobenzoic acid 4-amidinobenzamide.2 methanesulfonate]", "values": [{"measurement": "inhibition at 12.5 µg/mL", "setting": "[2]", "value": 2.9, "unit": "%"}, {"measurement": "inhibition at 25 µg/mL", "setting": "[2]", "value": 51, "unit": "%"}, {"measurement": "inhibition at 50 µg/mL", "setting": "[2]", "value": 80.8, "unit": "%"}]}]}
